Source: patent publication US11167037B2, “Antibody drug conjugate platform using bispecific antibody” (SEOUL NATIONAL UNIVERSITY R&DB FOUNDATION, priority 2016, dated 2021)
Residues, ends and D or L forms follow the SMILES beside them. Groups on a side chain read outwards from the residue. *: point of attachment. Biotin = O=C1N[C@H]2[C@H](CS[C@H]2CCCCC(=O)*)N1; X1 = CN1C(=O)C[C@H](C(=O)*)[C@H]1c1cccnc1; PEG6 = NCCOCCOCCOCCOCCOCCOCCC(=O)O

What was measured:
[1] = tested on: EGFR on the A549 cell surface; experiment: Flow cytometry on A549 cells; format: cell-based, human
Protocol: A549 cells were seeded in a v-bottom 96-well plate (Corning) in the final concentration of 4×10^5 cells per each sample. […] After washing with the flow cytometry buffer, the cells were cultured with phycoerythrin (PE)-conjugated streptavidin (BD Biosciences Pharminogen, San Diego, Calif., USA) and FITC-conjugated anti-human IgG (Fc specific) antibody (Thermo Fisher Scientific Pierce) in the dark for 1 hr at 37° C. After additional washing with the same buffer, the cells were resuspended in 200 μL PBS, and analyzed through flow cytometry using FACS Canto II instrument equipped with a 488-nm laser (BD Bioscience, San Jose, Calif., USA). 10,000 cells per measurement were detected and data were analyzed with FlowJo software (TreeStar, Ashland, Oreg., USA).

[2] = mouse, in vivo
Protocol: Blood samples were collected from intra-orbital vein at 0, 1, 24, 48, 72, 96 and 168 hrs post-injection. The samples were left at the room temperature for 2 hrs until the blood coagulated. Subsequently, serum was acquired by centrifuging at 3500 rpm for 15 min at 4° C.
After washing with 0.05% PBST, HRP-conjugated streptavidin (Thermo Fisher Scientific Pierce) was added and cultured for 1 hr at 37° C. After washing, TMB was added to each well and the absorbance was measured at 650 nm.

A549 cells = experiment: Cell viability assay (Cell Titer-Glo, 72 hrs); format: cell-based, human; details: ATP content
Protocol: A549 cells were seeded in 50 μL RPMI-1640 medium in black-walled 96-well plates (4,000 cells per well) and allowed to adhere overnight at 37° C. in 5% CO2 and humidified atmosphere. […] The cotinine-duocarmycin and antibody dilutes in 50 μL medium were added to each well, and cultured for 72 hrs. After adding Cell Titer-Glo reagent (Promega Corp.) to each well, luminescence signals were measured using a microplate luminometer (PerkinElmer, Waltham, Mass., USA) according to the manufacturer's instructions. All experiments were conducted in triplicate. The relative cell viability was calculated by dividing by the control luminescence signal [% viability=(Test−Background)/(Control−Background)×100].

A549 xenograft tumor = A549 xenograft tumor growth; format: in vivo, Balb/c-nude mice; details: intraperitoneally for five weeks, n=4/group
Protocol: Six-week-old female Balb/c-nude mice were subcutaneously injected with the A549 (1×10^7 cells) on the left and right flank of each mouse. When the tumor volume reached approximate 150 mm^3, all animals were randomly divided into three groups (n=4/group) and treated for five weeks. […] Then, three times dose of the drugs were injected thrice a week for the following three weeks. Palivizumab was used as an isotype control of the bispecific antibody. DMSO was used as a vehicle control of cotinine-duocarmycin. The tumor volume was measured using digital calipers twice a week in 32 days after injection. Tumor volume was calculated as length×(width)^2×0.5, where the length is the longest axis and the width is the distance perpendicular to the length. Systemic toxicity was evaluated by measuring body weight twice a week. Mice were sacrificed on the day 35 after injection and tumors were dissected and weighted.
To evaluate the in vivo efficacy of ERC6-complexed cotinine-duocarmycin, cetuximab-refractory A549 cells were grafted to mice (n=4/group). […] Drugs were administered to the mice twice a week for two weeks, and then thrice a week for three weeks.

Row | Molecule | binding activity of cotinine-biotin to A549 cell (streptavidin-PE signal) ([1]; ERC6 present) | binding activity of cotinine-biotin to A549 cell (streptavidin-PE signal) ([1]; mixture with anti-cotinine IgG) | binding activity of cotinine-biotin to A549 cell (streptavidin-PE signal) ([1]; mixture with cetuximab) | half-life [2] | cytotoxic / anti-proliferative effect (relative cell viability) (A549 cells) | inhibition of tumor growth (A549 xenograft tumor)
1 | CN1C(=O)C[C@H](C(=O)NCCCC[C@H](NC(=O)[C@H](CO)NC(=O)CNC(=O)CNC(=O)CNC(=O)CNC(=O)[C@H](CCCCNC(=O)CCOCCOCCOCCOCCOCCOCCNC(=O)CCCC[C@@H]2SC[C@@H]3NC(=O)N[C@@H]32)NC(=O)[C@H](CO)NC(=O)CNC(=O)CNC(=O)CNC(=O)CNC(=O)[C@H]2CC(=O)N(C)[C@@H]2c2cccnc2)C(=O)O)[C@H]1c1cccnc1 [cotinine-biotin, cotinine-GGGGSK[(dPEG6)-biotin]GGGGSK-cotinine] (X1-GGGGSK([PEG6-Biotin])GGGGSK(X1)-OH) | showed the binding activity to the A549 cell | did not produce any significant signal | did not produce any significant signal | 33.4 min | – | –
2 | COC(=O)c1cc2c([nH]1)C(=O)C=C1N(C(=O)c3cc4cc(OC)c(OC)c(OC)c4[nH]3)C[C@H]3C[C@]123 [free duocarmycin, duocarmycin, reference compound] | – | – | – | – | stronger anti-tumor effect than the cotinine-duocarmycin | –
3 | cotinine-[GSK(duocarmycin)]4K-cotinine [cotinine-duocarmycin] | – | – | – | – | potent anti-proliferative effect | could not be selectively delivered to the tumor site and inhibit the tumor growth
